Patent US20220233512A1, “INHIBITING AN IMMUNE RESPONSE MEDIATED BY ONE OR MORE OF TLR2, RAGE, CCR5, CXCR4 AND CD4” (priority 2020, published 2022)

What was measured:
[1] = test system: mild-to-moderate AD patients; test: Clinical studies of sumifilam in Alzheimer's disease patients; type: in vivo, human
Text: FIG. 7, in two panels as FIGS. 7A and 7B, graphically illustrates some of the results of a Phase 2b Clinical study of the effects of Compound C0105, now known as sumifilam, on 64 mild-to-moderate AD patients, mini-mental state examination (MMSE) value of ≥16≤26, age 50-85 years, with a key inclusion at screening of CFS Total tau/ab≥0.28. The patients were divided into three groups, and each group was given one of three tablet dosages twice daily for 28 days. One patient group received a placebo, another received tablets containing 50 mg of sumifilam and the third received tablets containing 100 mg of sumifilam. Lumbar puncture screening of CFS and blood were taken prior to any administration and at day 28. […] FIG. 7B repeats the results shown in FIG. 7A and includes results for the additional neuroinflammation markers YKL-40 (a glycoprotein produced by inflammatory, cancer and stem cells), interleukin-6 (IL-6), soluble triggering receptor expressed on myeloid cells 2 (sTREM2), albumin (a marker for blood-brain-barrier permeability) and IgG antibodies. Stronger significance levels occurred in the 100 mg group. Data are means±SEM. *p≤0.0001, #p≤0.001, †p<0.01 and +p<0.05 versus placebo. N=22, 18 and 19 for placebo, 50 mg and 100 mg, respectively. […]

[2] = target: T1, FLNA-TLR2 association (Homo sapiens, UniProt P21333); test: FLNA-TLR2 association in human postmortem frontal cortex slices; type: cell-based; conditions: 1 or 10 nM compound; LTA-SA, PGN-SA or Ab42; p<0.01
T1 construct: Human postmortem frontal cortex slices; from tissue; host or cells: human postmortem frontal cortex slices
T1 sequence (P21333 2-2647 limits assumed): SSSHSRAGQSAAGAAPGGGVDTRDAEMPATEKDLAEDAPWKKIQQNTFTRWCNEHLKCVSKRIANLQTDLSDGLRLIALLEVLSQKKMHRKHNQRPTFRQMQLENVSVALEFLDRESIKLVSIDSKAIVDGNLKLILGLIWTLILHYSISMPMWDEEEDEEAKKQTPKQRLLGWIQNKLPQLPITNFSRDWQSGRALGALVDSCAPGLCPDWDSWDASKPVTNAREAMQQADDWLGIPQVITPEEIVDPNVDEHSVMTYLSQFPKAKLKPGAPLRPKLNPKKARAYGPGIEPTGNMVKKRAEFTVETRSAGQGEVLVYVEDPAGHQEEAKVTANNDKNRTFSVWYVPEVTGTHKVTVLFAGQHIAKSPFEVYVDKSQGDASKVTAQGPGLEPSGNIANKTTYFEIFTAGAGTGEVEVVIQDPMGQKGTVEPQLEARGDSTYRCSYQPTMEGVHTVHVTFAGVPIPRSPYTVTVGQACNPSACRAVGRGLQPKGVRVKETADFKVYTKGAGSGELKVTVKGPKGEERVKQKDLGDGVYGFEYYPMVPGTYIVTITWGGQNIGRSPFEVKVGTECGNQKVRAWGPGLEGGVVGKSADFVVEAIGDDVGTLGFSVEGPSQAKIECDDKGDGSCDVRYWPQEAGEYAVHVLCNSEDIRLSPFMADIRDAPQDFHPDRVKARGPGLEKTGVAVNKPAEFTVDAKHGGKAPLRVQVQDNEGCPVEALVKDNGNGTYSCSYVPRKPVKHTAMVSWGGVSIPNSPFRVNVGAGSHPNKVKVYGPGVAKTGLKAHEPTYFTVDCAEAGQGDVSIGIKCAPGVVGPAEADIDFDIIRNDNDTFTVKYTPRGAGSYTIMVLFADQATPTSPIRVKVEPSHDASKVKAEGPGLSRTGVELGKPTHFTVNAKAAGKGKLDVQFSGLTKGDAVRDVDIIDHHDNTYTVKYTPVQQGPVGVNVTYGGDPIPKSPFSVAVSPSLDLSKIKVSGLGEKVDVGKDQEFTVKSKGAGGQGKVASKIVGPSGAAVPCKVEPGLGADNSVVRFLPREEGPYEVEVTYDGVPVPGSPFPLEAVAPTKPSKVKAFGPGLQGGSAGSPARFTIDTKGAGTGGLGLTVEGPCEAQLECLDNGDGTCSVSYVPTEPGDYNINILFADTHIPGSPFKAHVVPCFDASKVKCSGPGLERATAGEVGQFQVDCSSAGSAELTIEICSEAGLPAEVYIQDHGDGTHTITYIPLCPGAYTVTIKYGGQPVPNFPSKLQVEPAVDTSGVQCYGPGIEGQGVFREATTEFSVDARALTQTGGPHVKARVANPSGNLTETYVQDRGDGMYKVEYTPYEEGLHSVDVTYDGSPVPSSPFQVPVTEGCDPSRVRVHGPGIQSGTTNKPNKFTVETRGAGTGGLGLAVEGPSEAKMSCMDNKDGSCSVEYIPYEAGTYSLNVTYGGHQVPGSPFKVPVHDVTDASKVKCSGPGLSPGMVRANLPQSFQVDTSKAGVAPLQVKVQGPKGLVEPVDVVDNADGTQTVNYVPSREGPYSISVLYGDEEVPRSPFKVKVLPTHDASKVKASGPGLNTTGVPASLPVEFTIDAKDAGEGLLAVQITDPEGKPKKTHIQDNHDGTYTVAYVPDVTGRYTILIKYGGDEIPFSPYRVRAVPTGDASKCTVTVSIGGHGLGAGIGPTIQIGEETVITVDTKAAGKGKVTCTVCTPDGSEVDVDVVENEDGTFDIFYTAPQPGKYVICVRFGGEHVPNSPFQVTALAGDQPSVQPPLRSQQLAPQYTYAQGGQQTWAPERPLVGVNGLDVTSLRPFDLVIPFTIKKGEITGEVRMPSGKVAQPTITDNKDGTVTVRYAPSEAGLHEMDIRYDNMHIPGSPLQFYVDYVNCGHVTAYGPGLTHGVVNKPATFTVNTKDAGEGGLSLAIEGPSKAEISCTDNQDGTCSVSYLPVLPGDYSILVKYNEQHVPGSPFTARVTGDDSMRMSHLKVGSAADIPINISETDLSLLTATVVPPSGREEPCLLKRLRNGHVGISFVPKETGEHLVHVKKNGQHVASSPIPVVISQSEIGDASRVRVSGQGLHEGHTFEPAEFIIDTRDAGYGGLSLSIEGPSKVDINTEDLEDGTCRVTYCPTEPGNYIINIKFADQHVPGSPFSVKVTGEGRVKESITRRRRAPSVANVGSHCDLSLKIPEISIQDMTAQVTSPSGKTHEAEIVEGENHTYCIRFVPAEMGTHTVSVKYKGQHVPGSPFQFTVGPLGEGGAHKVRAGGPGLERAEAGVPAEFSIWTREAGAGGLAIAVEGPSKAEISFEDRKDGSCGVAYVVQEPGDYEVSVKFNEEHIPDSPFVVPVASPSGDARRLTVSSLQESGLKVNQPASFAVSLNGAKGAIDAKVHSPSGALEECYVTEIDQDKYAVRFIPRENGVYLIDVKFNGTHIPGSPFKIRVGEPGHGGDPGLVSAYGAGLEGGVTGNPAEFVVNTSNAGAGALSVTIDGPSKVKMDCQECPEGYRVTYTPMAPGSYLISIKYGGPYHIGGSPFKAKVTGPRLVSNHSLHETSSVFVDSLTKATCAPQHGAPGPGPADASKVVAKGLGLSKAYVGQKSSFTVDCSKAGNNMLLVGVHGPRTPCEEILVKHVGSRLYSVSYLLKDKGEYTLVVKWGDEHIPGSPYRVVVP
Procedure: As will be seen from examination of FIG. 3 and FIG. 4, the ratio of TLR2 to FLNA increased with administration of each of LTA-SA, PGN-SA and Ab42 at a statistically significant amount relative to the control (p<0.01). Those changes in expression of TLR2 relative to FLNA were each inhibited by the presence of the 1 or 10 nM Compound C0105 at a statistically significant amount relative to the control (p<0.01) and relative to the ligand used. See, FIG. 3B.
Postmortem frontal cortex tissues were gradually thawed (from −80° C. to −20° C.) and were sliced using a chilled McIlwain tissue chopper ([…]). […]
The resultant immunocomplexes were pelleted by centrifugation at 4° C. […] The content of a7nAChRs in 50% of the obtained anti-Ab42 immunoprecipitate was determined by Western blotting with monoclonal anti-a7nAChR antibodies. […]
The content of b-actin in resultant immunoprecipitates is then analyzed by immunoblotting using monoclonal anti-b-actin to illustrate even immunoprecipitation efficiency and loading. […]

CN1CCC2(CC1)NCC(=O)N2Cc1ccccc1 [Compound C0105M] was tested, and the “Immunoinflammatory cytokines in treated patients” value ([1]; 50 or 100 mg twice daily, 28-day and 6-month studies) was “reduction in the immunoinflammatory cytokines”, the “Amount of HMGB1 in CSF” value ([1]; Phase 2b, 50 mg or 100 mg tablets twice daily for 28 days, p<0.001 relative to placebo) was “decreased significantly” and the “Ligand-induced change in TLR2 relative to FLNA (TLR2/FLNA ratio)” value [2] was “inhibited”.
